Data published in patent publication US9988381B2, “Five-member-heterocycle fused pyridine compounds, method of producing the same, and use thereof” (SHANGHAI INSTITUTE OF MATERIA MEDICA, CHINESE ACADEMY OF …, priority 2013, dated 2018).
Read-outs that look alike come from different tables or passages of the source.

Columns and labels:
[1] = molecular target: T1, c-Met kinase domain recombinant protein (Homo sapiens, UniProt P08581); test: biochemical; conditions: read-out: Inhibition rate at 10 μM (%)
T1 construct: 50 μL diluted solution of c-Met kinase domain recombinant protein in reaction buffer was added to initiate the reaction
Protocol: (§1) Enzymatic reaction substrate Poly(Glu,Tyr)4:1 was diluted to 20 μg/mL in potassium ion free PBS (10 mM sodium phosphate buffer, 150 mM NaCl, pH7.2-7.4), microplate was coated with this solution at 125 μL per well, and reacted at 37° C. for 12-16 hours. Liquid in wells was discarded. Plate washing: the plate was washed 3 times for 5 minutes each with 200 μL per well of T-PBS (potassium ion free PBS containing 0.1% Tween-20).
Into each well was added 49 μL diluted ATP solution in reaction buffer (50 mM HEPES pH 7.4, 50 mM MgCl2, 0.5 mM MnCl2, 0.2 mM Na3VO4, 1 mM DTT), and 1 μL per well of compound to be tested was added, then 50 μL diluted solution of c-Met kinase domain recombinant protein in reaction buffer was added to initiate the reaction, each test was setup with two wells of ATP free control. Reaction was performed in a 37° C. shaker (100 rpm) for 1 hour. Liquid in the wells was discarded, and the plate was washed three times with T-PBS.
Antibody PY99 was added at 100 μL per well (the antibody was 1:500 diluted in T-PBS containing 5 mg/mL BSA), incubated in a 37° C. shaker for 0.5 hour. Liquid in the wells was discarded, and the plate was washed three times with T-PBS.
Goat anti mouse secondary antibody labeled with horseradish peroxidase was added at 100 μL per well (the antibody was 1:2000 diluted in T-PBS containing 5 mg/mL BSA), incubated in a 37° C. shaker for 0.5 hour. Liquid in the wells was discarded, and the plate was washed three times with T-PBS.
Reaction was terminated by adding 50 μL per well of 2M H2SO4, the plate was read at 490 nm using a VERSAmax microplate reader with tunable wavelength.
(§2) Inhibition rate of the sample was calculated using the following equation: […]

[2] = molecular target: T1, c-Met kinase domain recombinant protein; test: biochemical; conditions: for inhibition at 0.1 µM: read-out: Average inhibition rate at 0.1 μM (%); for inhibition at 1 µM: read-out: Average inhibition rate at 1 μM (%); for inhibition at 10 µM: read-out: Average inhibition rate at 10 μM (%)
Protocol: as §1, with “discarded, then” for “discarded. Plate washing:”, “(PBS” for “(potassium ion free PBS”
Into each well was added 50 μL diluted ATP solution in reaction buffer (50 mM HEPES pH 7.4, 50 mM MgCl2, 0.5 mM MnCl2, 0.2 mM Na3VO4, 1 mM DTT), the final concentration was 5 μM. Test compound was diluted in DMSO to proper concentration, added at 1 μL per well or corresponding level of DMSO (negative control wells), then 49 μL diluted solution of c-Met kinase domain recombinant protein in reaction buffer was added to initiate the reaction, each test was setup with two wells of ATP free control. Reaction was performed in a 37° C. shaker (100 rpm) for 1 hour. The plate was washed three times with T-PBS. Primary antibody PY99 diluted solution was added at 100 μL per well, incubated in a 37° C. shaker for 0.5 hour.
The plate was washed three times with T-PBS. Goat anti mouse secondary antibody labeled with horseradish peroxidase was added at 100 μL per well, incubated in a 37° C. shaker for 0.5 hour. The plate was washed three times with T-PBS. […] Reaction was terminated by adding 50 μL per well of 2M H2SO4, the plate was read at 490 nm using a SPECTRA MAX 190 microplate reader with tunable wavelength.
as §2
IC50 was calculated by fitting the data for a four parameter fit using inhibition curve.

T1 sequence (P08581 1078-1345 limits assumed): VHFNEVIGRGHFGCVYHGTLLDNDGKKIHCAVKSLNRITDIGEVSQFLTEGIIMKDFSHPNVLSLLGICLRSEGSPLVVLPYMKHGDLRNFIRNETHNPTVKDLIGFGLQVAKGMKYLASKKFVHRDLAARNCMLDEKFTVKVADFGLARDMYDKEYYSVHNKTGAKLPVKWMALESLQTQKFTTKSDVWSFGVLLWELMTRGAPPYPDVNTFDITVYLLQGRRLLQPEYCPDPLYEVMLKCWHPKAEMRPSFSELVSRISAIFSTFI

Row | inhibition at 10 µM [1] | inhibition at 0.1 µM [2] | inhibition at 1 µM [2] | inhibition at 10 µM [2] | IC50 [2] | SMILES
1 | 68.7% | 45.1% | 54.6% | 68.7% | – | CN(C)C(=O)c1ccc(-c2cnc3cnn(S(=O)(=O)c4cnc5ccccn45)c3c2)cc1 [Example 41, 1-(imidazo[1,2-a]pyridine-3-sulfonyl)-6-(4-dimethylaminocarbonylphenyl)-1-H-pyrazolo[4,3-b]pyridine]
2 | 67.5% | 45.5% | 58.4% | 67.5% | – | CN(C)c1ccc(-c2cnc3cnn(S(=O)(=O)c4cnc5ccccn45)c3c2)cc1 [Example 42, 1-(imidazo[1,2-a]pyridine-3-sulfonyl)-6-(4-dimethylaminophenyl)-1-H-pyrazolo[4,3-b]pyridine]
3 | 58.4% | 23.1% | 47.6% | 68.7% | – | COc1ccc(OC)c(-c2cnc3cnn(S(=O)(=O)c4cnc5ccccn45)c3c2)c1 [Example 43, 1-(imidazo[1,2-a]pyridine-3-sulfonyl)-6-(2,5-dimethoxyphenyl)-1-H-pyrazolo[4,3-b]pyridine]
4 | 58.9% | 52.8% | 55.7% | 57.4% | – | O=C(c1ccc(C(F)(F)F)cc1)N1CCC(n2cc(-c3cnc4cnn(S(=O)(=O)c5cnc6ccccn56)c4c3)cn2)CC1 [Example 58, 1-(imidazo[1,2-a]pyridine-3-sulfonyl)-6-{{1-[(1-p-trifluoromethylbenzoyl)-4-piperidinyl]}-4-pyrazolyl}-1-H-pyrazolo[4,3-b]pyridine]
5 | 79.3% | 60.8% | 65.1% | 69.8% | – | O=S(=O)(c1cnc2ccc(C(F)(F)F)cn12)n1ncc2ncc(-c3cnn(C4CCNCC4)c3)cc21 [Example 65]
6 | 79.9% | 52.3% | 57.7% | 59.6% | – | CC(C)N1CCC(n2cc(-c3cnc4cnn(S(=O)(=O)c5cnc6ccc(C(F)(F)F)cn56)c4c3)cn2)CC1 [Example 69]
7 | 68.2% | – | 44.7% | 79.3% | – | Cn1cc(-c2cnc3cnn(S(=O)(=O)c4cnc5ccc(Br)cn45)c3c2)cn1 [Example 70, 1-[(6-bromo-imidazo[1,2-a]pyridine)-3-sulfonyl]-6-[(1-methyl)-4-pyrazolyl]-1-H-pyrazolo[4,3-b]pyridine]
8 | 62% | 68.5% | 73.4% | 83.8% | 0.1 ± 0.01 nM | Cn1cc(-c2cnc3cnn(S(=O)(=O)c4cnc5ccc(-c6ccccc6)cn45)c3c2)cn1 [Example 71, 1-[(6-phenyl-imidazo[1,2-a]pyridine)-3-sulfonyl]-6-[(1-methyl)-4-pyrazolyl]-1-H-pyrazolo[4,3-b]pyridine]
9 | > 67.6% | – | – | 12.1% | – | Cn1cc(-c2cnc3cnn(S(=O)(=O)c4cnc5ccc(-c6cncnc6)cn45)c3c2)cn1 [Example 74, 1-{[6-(5-pyrimidine)-imidazo[1,2-a]pyridine]-3-sulfonyl}-6-[(1-methyl)-4-pyrazolyl]-1-H-pyrazolo[4,3-b]pyridine]
10 | > 77.3% | 74.6% | 75.6% | 83.1% | – | Cn1cc(-c2cnc3cnn(S(=O)(=O)c4cnc5ccc(-c6ccc(N7CCOCC7)cc6)cn45)c3c2)cn1 [Example 75, 1-{[6-(4-morpholinylphenyl)-imidazo[1,2-a]pyridine]-3-sulfonyl}-6-[(1-methyl)-4-pyrazolyl]-1-H-pyrazolo[4,3-b]pyridine]
11 | > 76.9% | 55.8% | 64.8% | 85.5% | – | Cn1cc(-c2cnc3cnn(S(=O)(=O)c4cnc5ccc(-c6ccc(C(F)(F)F)cc6)cn45)c3c2)cn1 [Example 77, 1-{[6-(4-trifluoromethylphenyl)-imidazo[1,2-a]pyridine]-3-sulfonyl}-6-[(1-methyl)-4-pyrazolyl]-1-H-pyrazolo[4,3-b]pyridine]
12 | > 12.1% | 64.5% | 69.3% | 89.3% | – | Cc1ccc(-c2ccc3ncc(S(=O)(=O)n4ncc5ncc(-c6cnn(C)c6)cc54)n3c2)cc1F [Example 78, 1-{[6-(3-fluoro-4-methylphenyl)-imidazo[1,2-a]pyridine]-3-sulfonyl}-6-[(1-methyl)-4-pyrazolyl]-1-H-pyrazolo[4,3-b]pyridine]
13 | > 83.1% | – | 30.5% | 77.4% | – | CC(C)Oc1ccc(-c2ccc3ncc(S(=O)(=O)n4ncc5ncc(-c6cnn(C)c6)cc54)n3c2)cc1 [Example 79]
14 | > 75.3% | – | 47.5% | 80.6% | – | CN1CCN(C(=O)c2ccc(-c3ccc4ncc(S(=O)(=O)n5ncc6ncc(-c7cnn(C)c7)cc65)n4c3)cc2)CC1 [Example 80, 1-{[6-[4-(4-methylpiperazine-1-carbonyl)phenyl]-imidazo[1,2-a]pyridine]-3-sulfonyl}-6-[(1-methyl)-4-pyrazolyl]-1-H-pyrazolo[4,3-b]pyridine]
15 | > 78.5% | 54.4% | 63.8% | 77.7% | – | Cn1cc(-c2cnc3cnn(S(=O)(=O)c4cnc5ccc(-c6cnn(C7CCNCC7)c6)cn45)c3c2)cn1 [Example 82, 1-{[6-([1-(4-piperidinyl)]-4-pyrazolyl)-imidazo[1,2-a]pyridine]-3-sulfonyl}-6-[(1-methyl)-4-pyrazolyl]-1-H-pyrazolo[4,3-b]pyridine chloride]
16 | > 79.8% | – | 44.4% | 77.7% | – | Cn1cc(-c2cnc3cnn(S(=O)(=O)c4cnc5ccc(-c6cccc(C(F)(F)F)c6)cn45)c3c2)cn1 [Example 83, 1-{[6-(3-trifluoromethylphenyl)-imidazo[1,2-a]pyridine]-3-sulfonyl}-6-[(1-methyl)-4-pyrazolyl]-1-H-pyrazolo[4,3-b]pyridine]

Row | SMILES | inhibition at 10 µM [1] | inhibition at 0.1 µM [2] | inhibition at 1 µM [2] | inhibition at 10 µM [2] | IC50 [2]
17 | CC(C)(C)OC(=O)N1CCC(n2cc(-c3cnc4cnn(S(=O)(=O)c5cnc6ncccn56)c4c3)cn2)CC1 [Example 52, 1-(imidazo[1,2-a]pyrimidine-3-sulfonyl)-6-{{1-[(1-t-butoxycarbonyl)-4-piperidinyl]}-4-pyrazolyl}-1-H-pyrazolo[4,3-b]pyridine] | 54.5% | 24.5% | 50.3% | 54.5% | –
18 | CC(C)(C)OC(=O)N1CCC(n2cc(-c3cnc4cnn(S(=O)(=O)c5cnc6ccc(-c7cnn(C8CCN(C(=O)OC(C)(C)C)CC8)c7)nn56)c4c3)cn2)CC1 [Example 62, 1-{(6-{{1-[(1-t-butoxycarbonyl)-4-piperidinyl]}-4-pyrazolyl}-imidazo[1,2-b]pyridazine)-3-sulfonyl}-6-{{1-[(1-t-butoxycarbonyl)-4-piperidinyl]}-4-pyrazolyl}-1-H-pyrazolo[4,3-b]pyridine] | 62.6% | 73.2% | 73.2% | 80% | –
19 | CC(C)(C)OC(=O)N1CCC(n2cc(-c3cnc4cnn(S(=O)(=O)c5cnc6ccc(-c7cnn(C8CCN(C(=O)OC(C)(C)C)CC8)c7)cn56)c4c3)cn2)CC1 [Example 68, 1-{(6-{{1-[(1-t-butoxycarbonyl)-4-piperidinyl]}-4-pyrazolyl}-imidazo[1,2-a]pyridine)-3-sulfonyl}-6-{{1-[(1-t-butoxycarbonyl)-4-piperidinyl]}-4-pyrazolyl}-1-H-pyrazolo[4,3-b]pyridine] | 69.8% | 50.2% | 55.8% | 62% | –
